From article PMC4433817 (Journal of molecular biology, 2015)
pIC50: −log10 of the molar value.

Target: IspG (GcpE) (Thermus thermophilus, UniProt Q5SLI8)
Test: co-crystal X-ray structure
Type: biochemical

Chain of IspG (GcpE) (Q5SLI8 whole entry): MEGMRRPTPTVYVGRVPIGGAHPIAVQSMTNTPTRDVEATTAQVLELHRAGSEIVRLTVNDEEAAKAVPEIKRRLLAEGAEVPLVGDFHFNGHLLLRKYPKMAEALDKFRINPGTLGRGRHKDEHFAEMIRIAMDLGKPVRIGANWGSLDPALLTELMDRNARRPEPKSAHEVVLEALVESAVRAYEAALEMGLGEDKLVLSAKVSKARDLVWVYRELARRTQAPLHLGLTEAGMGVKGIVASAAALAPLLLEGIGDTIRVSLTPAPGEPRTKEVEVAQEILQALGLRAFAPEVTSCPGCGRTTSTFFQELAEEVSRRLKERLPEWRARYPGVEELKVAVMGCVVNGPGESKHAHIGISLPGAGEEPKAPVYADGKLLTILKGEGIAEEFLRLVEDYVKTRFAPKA

## O=P(O)(O)OP(=O)(O)O [compound 6, diphosphate]
  pIC50: 4.70
